Reference: ChEMBL document CHEMBL4837250, “Discovery of LYC-55716: A Potent, Selective, and Orally Bioavailable Retinoic Acid Receptor-Related Orphan Receptor-γ (RORγ) Agonist for Use in Treating Cancer” (J Med Chem, 2021)
≈ marks a conversion by molar mass, not a printed value.

Legend:
in vitro [1] = conditions: human, hepatocytes
in vivo [2] = conditions: CD1, mouse, po, 10 mg/kg
in vivo [3] = conditions: CD1, mouse, po, 10 mg/kg; remark: listed apart in the source
physchem = conditions: PBS buffer, pH 7.4
Description: Solubility of the compound in pH 7.4 PBS buffer

in vivo [4] = conditions: CD1, mouse, plasma, po, 10 mg/kg
CYP3A4 = CYP3A4 (Homo sapiens, UniProt P08684); experiment: in vitro; conditions: probe testosterone
CYP3A4, sequence (P08684 whole entry): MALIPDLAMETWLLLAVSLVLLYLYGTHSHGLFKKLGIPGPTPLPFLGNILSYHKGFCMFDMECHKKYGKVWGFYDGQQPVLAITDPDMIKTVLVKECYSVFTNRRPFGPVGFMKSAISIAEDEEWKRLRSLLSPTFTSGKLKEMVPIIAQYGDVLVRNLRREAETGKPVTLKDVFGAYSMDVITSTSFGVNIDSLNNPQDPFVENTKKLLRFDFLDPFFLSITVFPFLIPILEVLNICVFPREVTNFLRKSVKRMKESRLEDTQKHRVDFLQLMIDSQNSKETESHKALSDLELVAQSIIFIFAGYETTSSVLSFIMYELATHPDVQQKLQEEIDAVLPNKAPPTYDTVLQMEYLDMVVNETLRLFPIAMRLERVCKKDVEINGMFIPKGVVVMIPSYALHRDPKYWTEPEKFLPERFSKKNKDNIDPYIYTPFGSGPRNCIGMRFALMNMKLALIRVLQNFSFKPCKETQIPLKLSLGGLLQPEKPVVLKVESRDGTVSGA
Description: Inhibition of CYP3A4 (unknown origin) assessed as oxidation of testosterone at 10 uM

CYP2D6 = CYP2D6 (Homo sapiens, UniProt P10635); experiment: in vitro; conditions: probe testosterone
CYP2D6, sequence (P10635 whole entry): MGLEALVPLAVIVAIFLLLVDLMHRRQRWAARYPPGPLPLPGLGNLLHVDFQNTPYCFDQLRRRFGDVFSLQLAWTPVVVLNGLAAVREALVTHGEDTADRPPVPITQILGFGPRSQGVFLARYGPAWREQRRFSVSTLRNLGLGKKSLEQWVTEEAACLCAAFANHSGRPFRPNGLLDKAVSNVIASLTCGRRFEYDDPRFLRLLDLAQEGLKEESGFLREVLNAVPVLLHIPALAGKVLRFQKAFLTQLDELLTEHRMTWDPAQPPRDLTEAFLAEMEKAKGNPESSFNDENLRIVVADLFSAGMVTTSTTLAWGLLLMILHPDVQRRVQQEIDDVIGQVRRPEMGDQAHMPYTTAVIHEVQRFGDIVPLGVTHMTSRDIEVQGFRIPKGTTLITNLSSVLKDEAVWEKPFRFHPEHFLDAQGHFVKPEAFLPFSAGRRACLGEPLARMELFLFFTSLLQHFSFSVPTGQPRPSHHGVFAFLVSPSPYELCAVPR
Description: Inhibition of CYP2D6 (unknown origin) assessed as oxidation of testosterone at 10 uM

in vivo [5] = conditions: CD1, mouse, po, 10 mg/kg; remark: listed apart in the source
Description: Half life in CD1 mouse at 10 mg/kg, po

[6] = biological target: T1, Nuclear receptor ROR-gamma (Homo sapiens, UniProt P51449)
T1 sequence (P51449 whole entry): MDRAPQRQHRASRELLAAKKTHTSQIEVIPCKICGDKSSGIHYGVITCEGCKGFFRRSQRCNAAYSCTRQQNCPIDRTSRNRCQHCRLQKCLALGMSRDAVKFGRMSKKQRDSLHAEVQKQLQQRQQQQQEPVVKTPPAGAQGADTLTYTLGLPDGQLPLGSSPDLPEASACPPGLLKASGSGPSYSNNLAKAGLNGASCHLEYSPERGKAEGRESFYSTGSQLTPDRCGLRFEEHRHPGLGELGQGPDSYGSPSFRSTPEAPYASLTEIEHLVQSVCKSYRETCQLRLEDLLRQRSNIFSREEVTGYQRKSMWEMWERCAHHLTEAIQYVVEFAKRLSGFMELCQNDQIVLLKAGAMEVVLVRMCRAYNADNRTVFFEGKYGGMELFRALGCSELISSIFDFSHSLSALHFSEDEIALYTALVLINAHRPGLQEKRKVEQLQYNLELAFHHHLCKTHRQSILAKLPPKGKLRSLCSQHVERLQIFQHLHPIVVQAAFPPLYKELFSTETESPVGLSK
Description: Agonist activity at human ROR-gamma LBD expressed in HEK293 cells assessed as transcriptional activity in presence of ursolic acid by Gal4-luciferase reporter assay

[7] = biological target: T2, Nuclear receptor subfamily 1 group I member 2 (Homo sapiens, UniProt O75469)
T2 sequence (O75469 whole entry): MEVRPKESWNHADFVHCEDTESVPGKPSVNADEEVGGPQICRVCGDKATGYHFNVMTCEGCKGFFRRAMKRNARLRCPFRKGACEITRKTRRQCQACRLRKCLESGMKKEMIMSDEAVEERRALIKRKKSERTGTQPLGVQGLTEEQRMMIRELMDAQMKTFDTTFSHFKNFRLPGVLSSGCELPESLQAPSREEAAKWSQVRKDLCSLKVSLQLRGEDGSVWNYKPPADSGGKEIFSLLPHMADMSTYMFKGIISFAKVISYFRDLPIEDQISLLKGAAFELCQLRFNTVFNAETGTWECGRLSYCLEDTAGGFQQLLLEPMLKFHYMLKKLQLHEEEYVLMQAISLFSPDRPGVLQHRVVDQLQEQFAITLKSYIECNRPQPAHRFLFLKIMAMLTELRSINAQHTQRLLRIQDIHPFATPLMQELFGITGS
Description: Agonist activity at human PXR-gamma expressed in HEK293 cells assessed as transcriptional activity in presence of ursolic acid by Gal4-luciferase reporter assay

in vitro [8] = conditions: human, hepatocytes; remark: listed apart in the source
Description: Clearance in human hepatocyte measured per 10^6 cells

[9] = biological target: T1, Nuclear receptor ROR-gamma; remark: listed apart in the source
Description: Agonist activity at human His-tagged RORgamma-LBD expressed in Sf9 cells assessed as inhibition of N-terminal biotinylated co-activator SRC1 recruitment in presence of ursolic acid measured after 60 mins by FRET assay

in vivo [10] = conditions: cynomolgus monkey, po, at 30 to 300 mg/kg
[11] = biological target: T3, Nuclear receptor ROR-beta (Homo sapiens, UniProt Q92753)
T3 sequence (Q92753 whole entry): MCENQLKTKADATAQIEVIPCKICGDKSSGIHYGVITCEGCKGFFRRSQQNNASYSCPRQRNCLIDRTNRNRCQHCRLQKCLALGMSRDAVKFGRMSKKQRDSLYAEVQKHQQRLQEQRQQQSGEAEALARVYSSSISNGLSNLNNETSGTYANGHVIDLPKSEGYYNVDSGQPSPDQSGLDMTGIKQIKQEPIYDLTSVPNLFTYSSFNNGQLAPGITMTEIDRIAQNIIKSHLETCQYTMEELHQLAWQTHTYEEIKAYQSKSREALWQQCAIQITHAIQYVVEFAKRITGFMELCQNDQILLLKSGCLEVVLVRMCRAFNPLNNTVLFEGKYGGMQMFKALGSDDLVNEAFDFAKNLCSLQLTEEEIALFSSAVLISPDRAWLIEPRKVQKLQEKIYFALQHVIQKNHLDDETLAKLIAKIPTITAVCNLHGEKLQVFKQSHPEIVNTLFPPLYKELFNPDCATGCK
Description: Agonist activity at RORbeta (unknown origin)

in vitro [12] = conditions: mouse, plasma
Description: Plasma protein binding in mouse

in vivo [13] = conditions: cynomolgus monkey, iv, 1 mg/kg
Description: Volume of distribution in cynomolgus monkey rat at 1 mg/kg, iv

[14] = biological target: T4, Nuclear receptor ROR-alpha (Homo sapiens, UniProt P35398)
T4 sequence (P35398 whole entry): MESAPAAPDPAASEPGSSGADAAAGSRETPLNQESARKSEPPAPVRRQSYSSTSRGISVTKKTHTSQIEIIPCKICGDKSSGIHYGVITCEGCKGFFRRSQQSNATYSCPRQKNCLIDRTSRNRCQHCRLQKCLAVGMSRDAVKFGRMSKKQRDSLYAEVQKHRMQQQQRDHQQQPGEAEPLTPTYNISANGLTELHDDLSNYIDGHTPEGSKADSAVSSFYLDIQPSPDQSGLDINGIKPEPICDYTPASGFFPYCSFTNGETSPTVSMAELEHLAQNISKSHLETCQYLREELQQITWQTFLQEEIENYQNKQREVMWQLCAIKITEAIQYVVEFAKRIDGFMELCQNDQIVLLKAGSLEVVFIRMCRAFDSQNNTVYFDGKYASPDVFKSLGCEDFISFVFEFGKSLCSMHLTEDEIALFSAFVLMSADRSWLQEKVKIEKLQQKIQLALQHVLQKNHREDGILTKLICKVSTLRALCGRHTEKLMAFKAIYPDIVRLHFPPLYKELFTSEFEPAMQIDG
Description: Agonist activity at RORalpha (unknown origin)

hERG (KCNH2) = hERG (KCNH2) (Homo sapiens, UniProt Q12809); experiment: in vitro
hERG (KCNH2), sequence (Q12809 whole entry): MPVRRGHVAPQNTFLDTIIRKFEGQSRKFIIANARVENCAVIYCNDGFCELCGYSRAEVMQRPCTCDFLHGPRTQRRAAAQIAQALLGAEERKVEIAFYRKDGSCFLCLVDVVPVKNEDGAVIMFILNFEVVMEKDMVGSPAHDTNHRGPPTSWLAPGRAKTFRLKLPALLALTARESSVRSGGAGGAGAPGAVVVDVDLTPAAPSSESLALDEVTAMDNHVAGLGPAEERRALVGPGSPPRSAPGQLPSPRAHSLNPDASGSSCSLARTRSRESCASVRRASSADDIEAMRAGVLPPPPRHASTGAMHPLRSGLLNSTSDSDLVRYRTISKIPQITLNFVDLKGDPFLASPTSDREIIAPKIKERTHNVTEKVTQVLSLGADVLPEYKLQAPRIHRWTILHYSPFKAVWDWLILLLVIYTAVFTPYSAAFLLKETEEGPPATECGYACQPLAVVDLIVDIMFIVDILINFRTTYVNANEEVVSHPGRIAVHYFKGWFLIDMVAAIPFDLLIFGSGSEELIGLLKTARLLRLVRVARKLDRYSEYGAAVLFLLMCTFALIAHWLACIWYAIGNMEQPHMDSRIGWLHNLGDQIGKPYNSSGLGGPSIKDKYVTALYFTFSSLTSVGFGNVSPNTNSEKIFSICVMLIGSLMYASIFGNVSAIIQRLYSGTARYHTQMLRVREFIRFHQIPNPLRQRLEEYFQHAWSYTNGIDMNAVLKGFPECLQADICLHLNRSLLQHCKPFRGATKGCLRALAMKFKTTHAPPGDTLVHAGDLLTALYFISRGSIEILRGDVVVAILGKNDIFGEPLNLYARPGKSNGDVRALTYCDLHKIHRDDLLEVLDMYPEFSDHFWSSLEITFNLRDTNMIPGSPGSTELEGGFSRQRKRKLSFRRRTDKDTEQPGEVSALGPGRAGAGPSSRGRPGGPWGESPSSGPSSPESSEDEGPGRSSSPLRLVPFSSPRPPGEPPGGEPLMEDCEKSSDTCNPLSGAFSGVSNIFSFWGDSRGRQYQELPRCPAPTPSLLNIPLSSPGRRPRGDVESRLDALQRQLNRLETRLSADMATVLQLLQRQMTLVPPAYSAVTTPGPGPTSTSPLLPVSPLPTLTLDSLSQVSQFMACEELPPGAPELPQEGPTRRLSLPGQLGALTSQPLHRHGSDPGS
Description: Inhibition of human ERG by patch-clamp assay

in vitro [15] = conditions: human, plasma
Description: Plasma protein binding in human

in vivo [16] = conditions: Sprague-Dawley, rat, iv, 1 mg/kg
Description: Half life in Sprague-Dawley rat at 1 mg/kg, iv

MC-38 = experiment: animal or person; conditions: Mus musculus, MC-38, po, 600 h, read-out: TGI
Description: Antitumor activity against mouse MC38 cells implanted in C57/BL6 mouse assessed as tumor growth inhibition at 30 mg/kg, po twice daily measured up to 25 days

in vivo [17] = conditions: Sprague-Dawley, rat, iv, 1 mg/kg; remark: listed apart in the source
Description: Volume of distribution in Sprague-Dawley rat at 1 mg/kg, iv

in vivo [18] = conditions: cynomolgus monkey, iv, 1 mg/kg; remark: listed apart in the source
Description: Half life in cynomolgus monkey rat at 1 mg/kg, iv

in vivo [19] = conditions: Sprague-Dawley, rat, po, at 30 to 300 mg/kg
cells = conditions: Mus musculus, C57/BL6
Description: In vivo agonist activity at RORgamma in C57/BL6 mouse assessed as plasma concentration required to increase RORgamma targeted gene expression in isolated thymocytes

hepatocyte CLint (in vitro [1]) [µL/min/1e6 cells] | AUC(0-inf) (in vivo [2]) [ng·h/mL] | bioavailability (in vivo [3]) [%] | solubility (physchem) [µM] | CL/F (in vivo [4]) [mL/min/kg] | inhibition at 10 µM (CYP3A4) [%] | inhibition at 10 µM (CYP2D6) [%] | half-life (in vivo [5]) [h] | EC50 [6] [µM] | EC50 [7] [µM] | EC50 [9] [µM] | Compound | also measured
20 | 71000 | 86 | 15 (≈ 9.3 µg/mL) | 2 | 8 | 3 | 3.69 | – | – | – | O=C(O)CC[C@H]1CN(S(=O)(=O)c2cccc(C(F)(F)F)c2)c2cc(/C=C/c3c(Cl)cccc3C(F)(F)F)ccc2O1 | –
15 | 35600 | 100 | 288 (≈ 174 µg/mL) | 7.8 | 19 | 6 | 1.66 | 0.199 | > 10 | – | CCOc1nn2c(c1S(=O)(=O)N1C[C@H](CCC(=O)O)Oc3ccc(/C=C(\C)c4c(F)cccc4Cl)cc31)CCCC2 | –
17 | 1400 | 59 | 262 (≈ 162 µg/mL) | 70.2 | – | – | 2.74 | – | – | – | O=C(O)C1(C[C@H]2CN(S(=O)(=O)c3cccc(C(F)(F)F)c3)c3cc(-c4cc(F)cc(OC(F)F)c4)ccc3O2)COC1 | hepatocyte CLint (in vitro [8]): 17 µL/min/1e6 cells
7.7 | 9820 | 78 | 13 (≈ 7.22 µg/mL) | 13.2 | 28 | 6 | 7.35 | 0.344 | > 10 | 0.013 | CC(C)(C[C@H]1CN(S(=O)(=O)c2cccc(C(F)(F)F)c2)c2cc(-c3cc(F)ccc3F)ccc2O1)C(=O)O | –
32 | 11700 | 78 | 243 (≈ 128 µg/mL) | 11.1 | 20 | 0 | 4.44 | 0.414 | > 10 | 0.009 | O=C(O)CC[C@H]1CN(S(=O)(=O)c2cccc(C(F)(F)F)c2)c2cc(-c3ccccc3Cl)ccc2O1 | –
26 | 19600 | 95 | 247 (≈ 134 µg/mL) | 8.1 | 11 | 6 | 3.45 | 0.144 | > 10 | 0.262 | O=C(O)CC[C@H]1CN(S(=O)(=O)c2cccc(C(F)(F)F)c2)c2cc(-c3cccc(F)c3Cl)ccc2O1 | –
– | 3240 | 55 | 10 (≈ 6.04 µg/mL) | – | 9.5 | 6 | 4.31 | – | – | – | CC(C)(C[C@H]1CN(S(=O)(=O)c2cccc(C(F)(F)F)c2)c2cc(-c3cc(F)cc(OC(F)F)c3)ccc2O1)C(=O)O [CINTIRORGON] | bioavailability (in vivo [10]): ≥ 100%; EC50 [11]: > 10 µM; fraction unbound (in vitro [12]): 0.033; Vd (in vivo [13]): 1.42 L/kg; EC50 [14]: > 10 µM; IC20 (hERG (KCNH2)): > 50 µM; fraction unbound (in vitro [15]): 0.044; half-life (in vivo [16]): 2.8 h; inhibition in vivo at 30 mg/kg (MC-38): 46%; Vd (in vivo [17]): 5.7 L/kg; half-life (in vivo [18]): 6.6 h; bioavailability (in vivo [19]): ≥ 100%; EC50 (cells): 0.338 µM
